Measured values published in the supplement of paper PMC10331698.
± gives the standard deviation of the averaged measurements.

Tests used:
Assay in all cases: level (log10 ratio to DMSO vehicle control); higher = higher biomarker level / cell amount than vehicle control
Conditions in all cases: in DMSO
[1] = compound: CCN(CCO)S(=O)(=O)C(F)(F)C(F)(F)C(F)(F)C(F)(F)C(F)(F)C(F)(F)C(F)(F)C(F)(F)F [N-Ethyl-N-(2-hydroxyethyl)perfluorooctanesulfonamide]
Method: (§1)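 BioMAP Diversity Plus panel of 12 human primary cell co-culture systems (3C, 4H, LPS, SAg, BT, BF4T, BE3C, CASM3C, HDF3CGF, KF3CT, MyoF, Mphg). Compounds were added 1 h before stimulation and left for 24 h (MyoF 48 h; BT 72 h for soluble read-outs or 6 d for IgG). Biomarkers were read by ELISA, cytotoxicity by SRB, PBMC viability and proliferation by Alamar Blue. Each well value was divided by the mean of 8 DMSO control wells on the same plate and log10 transformed; duplicate blinded samples were tested at 4 concentrations.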

Heptafluorobutyramide = compound: NC(=O)C(F)(F)C(F)(F)C(F)(F)F [Heptafluorobutyramide]
Method: as §1

Perfluoropentanoic acid = compound: O=C(O)C(F)(F)C(F)(F)C(F)(F)C(F)(F)F [Perfluoropentanoic acid]
Method: as §1

[2] = compound: O=C(O)C(F)(F)C(F)(F)C(F)(F)OC(F)(C(F)(F)F)C(F)(F)F [Perfluoro-4-isopropoxybutanoic acid]
Method: as §1

[3] = compound: O=C(O)C(F)(F)OC(F)(F)C(F)(F)OC(F)(F)F [Perfluoro-3,6-dioxaheptanoic acid]
Method: as §1

[4] = compound: O=C(O)C(F)(F)C(F)(F)OC(F)(F)F [Perfluoro-3-methoxypropanoic acid]
Method: as §1

[5] = compound: FC(F)(F)C(F)(F)C(F)(F)C(F)(F)C(F)(F)C(F)(F)C(F)(F)C(F)(F)CCS [2-(Perfluorooctyl)ethanthiol]
Method: as §1

Test System	level (log10) ([1]; 6700 nM)	level (log10) ([1]; 20000 nM)	level (log10) (Heptafluorobutyramide; 6700 nM)	level (log10) (Heptafluorobutyramide; 20000 nM)	level (log10) (Heptafluorobutyramide; 60000 nM)	level (log10) (Perfluoropentanoic acid; 6700 nM)	level (log10) (Perfluoropentanoic acid; 20000 nM)	level (log10) (Perfluoropentanoic acid; 60000 nM)	level (log10) ([2]; 6700 nM)	level (log10) ([2]; 20000 nM)	level (log10) ([2]; 60000 nM)	level (log10) ([3]; 6700 nM)	level (log10) ([3]; 20000 nM)	level (log10) ([3]; 60000 nM)	level (log10) ([4]; 6700 nM)	level (log10) ([4]; 20000 nM)	level (log10) ([4]; 60000 nM)	level (log10) ([5]; 6700 nM)	level (log10) ([5]; 20000 nM)
BE3C:CD54/ICAM-1	0.0705 ± 0.033	0.0555 ± 0.013	-0.0195 ± 0.019	0.002 ± 0.0014	0.0035 ± 0.015	-0.006 ± 0.0085	-0.0095 ± 0.00071	0.0055 ± 0.039	-0.0095 ± 0.022	-0.014 ± 0.024	-0.0245 ± 0.005	-0.032 ± 0.0042	-0.0125 ± 0.0021	-0.0325 ± 0.015	0.003 ± 0.013	-0.0035 ± 0.0021	0.0065 ± 0.011	-0.0055 ± 0.028	-0.0055 ± 0.015
BE3C:CD87/uPAR	0.012 ± 0.016	-0.024 ± 0.028	0.043 ± 0.04	0.0155 ± 0.016	-0.019 ± 0.017	-0.0035 ± 0.063	-0.0235 ± 0.026	0.024 ± 0.0014	-0.016 ± 0.033	0.001 ± 0.031	0.0275 ± 0.035	0.0055 ± 0.021	0.0075 ± 0.0021	-0.0045 ± 0.015	-0.0225 ± 0.0092	-0.012 ± 0.013	0.002 ± 0.041	0.009 ± 0.014	0.027 ± 0.0042
BE3C:CXCL8/IL-8	-0.0825 ± 0.013	-0.218 ± 0.056	0.038 ± 0.0014	0.0365 ± 0.012	0.038 ± 0.051	-0.023 ± 0.0042	-0.036 ± 0.017	-0.0085 ± 0.057	0.0175 ± 0.025	0.0185 ± 0.019	0.015 ± 0.038	-0.041 ± 0.033	-0.007 ± 0.011	-0.0155 ± 0.05	-0.0445 ± 0.0064	-0.031 ± 0.0028	-0.007 ± 0.03	0.04 ± 0.073	0.0135 ± 0.093
BE3C:CXCL9/MIG	-0.006 ± 0.0028	-0.0285 ± 0.0035	0.002 ± 0.0014	0.0015 ± 0.0092	-0.006 ± 0.0028	-0.0035 ± 0.0092	-0.012 ± 0.013	0.007 ± 0.018	0.001 ± 0.0028	0.012 ± 0.0071	0.014 ± 0.017	-0.016 ± 0.0014	-0.003 ± 0.021	0.0025 ± 0.0035	0.005 ± 0.0014	0.0095 ± 0.018	0.0105 ± 0.0021	-0.0085 ± 0.011	-0.001 ± 0.011
BE3C:CXCL10/IP-10	-0.051 ± 0.0028	-0.141 ± 0.028	-0.0025 ± 0.00071	-0.0175 ± 0.012	0.0075 ± 0.018	-0.0085 ± 0.016	-0.013 ± 0.021	0.0005 ± 0.005	0.003 ± 0.0014	0.0135 ± 0.00071	0.0155 ± 0.015	-0.03 ± 0.016	-0.0115 ± 0.018	-0.0095 ± 0.0078	0.0025 ± 0.005	-0.0095 ± 0.0035	0.0025 ± 0.011	0.0405 ± 0.05	0.016 ± 0.058
BE3C:CXCL11/I-TAC	-0.006 ± 0.023	-0.0035 ± 0.029	-0.0035 ± 0.0064	0.005 ± 0.0042	-0.0015 ± 0.00071	-0.0175 ± 0.012	-0.015 ± 0.0028	-0.005 ± 0.014	-0.0095 ± 0.005	0.008 ± 0.0014	0.018 ± 0.0099	0.011 ± 0.023	0.008 ± 0.0014	0.012 ± 0.02	-0.0125 ± 0.0035	-0.0115 ± 0.0092	0.0045 ± 0.00071	0.0035 ± 0.037	0.0175 ± 0.035
BE3C:EGFR	-0.02 ± 0.0014	-0.072 ± 0.0057	-0.008 ± 0.0028	-0.017 ± 0.011	0.004 ± 0.021	-0.0025 ± 0.021	-0.011 ± 0.0057	0.004 ± 0.018	0.012 ± 0.027	0.0075 ± 0.005	0.044 ± 0.042	-0.0185 ± 0.012	0.003 ± 0.021	0.007 ± 0.02	-0.0075 ± 0.05	0.0065 ± 0.018	0.0335 ± 0.04	0.025 ± 0.013	0.0035 ± 0.03
BE3C:HLA-DR	-0.0445 ± 0.013	-0.115 ± 0.031	-0.0065 ± 0.005	0.0245 ± 0.012	-0.009 ± 0.0099	-0.0095 ± 0.018	0 ± 0.011	0.016 ± 0.033	-0.0045 ± 0.025	-0.0045 ± 0.016	0.0105 ± 0.011	-0.0205 ± 0.054	-0.01 ± 0.035	-0.0225 ± 0.056	-0.014 ± 0.0014	0.003 ± 0.023	-0.0035 ± 0.033	-0.0075 ± 0.0035	-0.0135 ± 0.0092
BE3C:IL-1alpha	0.0165 ± 0.005	-0.0485 ± 0.059	-0.0085 ± 0.052	0.027 ± 0.037	-0.004 ± 0.076	0.005 ± 0.02	0 ± 0.0028	0.0155 ± 0.029	0.0065 ± 0.026	0.016 ± 0.02	0.0325 ± 0.00071	-0.035 ± 0.04	-0.0345 ± 0.032	-0.0385 ± 0.046	0.0105 ± 0.015	0.0235 ± 0.005	0.0355 ± 0.026	-0.038 ± 0.0014	-0.017 ± 0.016
BF4T:CCL2/MCP-1	-0.004 ± 0.013	-0.022 ± 0.0028	0.008 ± 0.058	-0.011 ± 0.04	0.014 ± 0.047	0.004 ± 0.047	-0.0035 ± 0.052	-0.0275 ± 0.025	0.0235 ± 0.046	0.0325 ± 0.084	0.045 ± 0.078	-0.0235 ± 0.0021	0.002 ± 0.0071	-0.0255 ± 0.023	0.0075 ± 0.026	0.0115 ± 0.043	0.0535 ± 0.054	-0.0265 ± 0.029	-0.031 ± 0.03
BF4T:CCL26/Eotaxin-3	0.0905 ± 0.029	0.141 ± 0.0028	0.0165 ± 0.022	-0.0035 ± 0.0021	0.0045 ± 0.012	-0.0155 ± 0.029	-0.0165 ± 0.0092	0.018 ± 0.05	-0.0055 ± 0.09	-0.0185 ± 0.069	-0.0105 ± 0.016	-0.039 ± 0.048	-0.0195 ± 0.021	-0.0615 ± 0.1	-0.033 ± 0.0085	-0.031 ± 0.016	0.02 ± 0.057	-0.0585 ± 0.04	-0.037 ± 0.0099
BF4T:CD54/ICAM-1	0.0495 ± 0.016	0.032 ± 0.0042	-0.0065 ± 0.011	-0.013 ± 0.0042	0.0015 ± 0.015	-0.0155 ± 0.0021	-0.0135 ± 0.005	0.0015 ± 0.043	-0.0095 ± 0.021	-0.007 ± 0.0057	-0.0115 ± 0.013	0.0115 ± 0.005	-0.009 ± 0.0028	-0.012 ± 0.0071	0.0165 ± 0.0064	-0.0085 ± 0.011	-0.0015 ± 0.0035	0.0025 ± 0.005	-0.003 ± 0.0014
BF4T:CD90	-0.013 ± 0.0099	-0.0145 ± 0.005	0.002 ± 0.013	-0.008 ± 0.0085	0.003 ± 0.0042	-0.02 ± 0.0085	-0.0105 ± 0.005	-0.0025 ± 0.025	-0.002 ± 0.0057	-0.025 ± 0.0028	-0.0075 ± 0.012	-0.012 ± 0.0042	0.001 ± 0.0099	-0.011 ± 0.0014	-0.012 ± 0.021	-0.0165 ± 0.013	-0.0095 ± 0.0035	-0.003 ± 0.0028	-0.0065 ± 0.005
BF4T:CD106/VCAM-1	-0.039 ± 0.0085	-0.0615 ± 0.0092	-0.006 ± 0.0014	-0.013 ± 0.0085	0.021 ± 0.069	-0.0425 ± 0.036	-0.046 ± 0.016	0.018 ± 0.04	-0.042	-0.035 ± 0.02	-0.0065 ± 0.037	-0.035 ± 0.055	-0.0205 ± 0.032	-0.01 ± 0.017	-0.025 ± 0.031	-0.029 ± 0.011	0.022 ± 0.014	-0.003 ± 0.051	-0.0605 ± 0.0078
